Test results as given in patent EP1674457B1, “Derivatives of squaric acid with anti-proliferative activity” (GPC Biotech AG, priority 2004, dated 2006).

Assays:
A2780 [1] = assay: SRB assay, inhibition of tumor cell growth at 1 µM (Example 61); type: cell-based, Human; conditions: Homo sapiens, 48 hours
Procedure: (§1) 3,000-15,000 cells/well were exposed to the test compounds at a concentration of 1 µM for 48 hours, and cytotoxicty was measured using the SRB assay according to Shekan et al (J Natl Cancer Inst (1990) 82, 1107-112). Briefly, cells were plated in 96 well dishes 24 hours prior to compound addition. The assay was terminated with the addition of cold TCA to a final concentration of 10% and the plates were incubated for one hour at 4°C. The plates were then washed 5 times with water and 100µl of a Sulforhodamine B solution (4%) was added to each well. The plate was then incubated for 10 minutes at room temperature before removal of unbound dye by washing with 1% acetic acid. The bound dye was solubilized with 10 mM Trizma base and the absorbance read at OD570. Inhibitory activity of the compounds was calculated as % inhibition compared to cells treated with the solvent (DMSO). Table 2 represents the growth inhibitory activity of certain compunds of the invention across a number of tumor cell lines.

A-549 [2] = assay: as above; type: cell-based; conditions: Homo sapiens, A549, 48 hours
Procedure: as §1

HCT-116 [3] = assay: as above; type: cell-based; conditions: Homo sapiens, 48 hours
Procedure: as §1

MCF7 [4] = assay: as above; type: cell-based; conditions: Homo sapiens, 48 hours
Procedure: as §1

PC-3 [5] = assay: as above; type: cell-based; conditions: Homo sapiens, 48 hours
Procedure: as §1

SW-620 [6] = assay: as above; type: cell-based; conditions: Homo sapiens, 48 hours
Procedure: as §1

A2780 [7] = assay: IC50 determination by SRB assay (Example 62); type: cell-based; conditions: Homo sapiens
Procedure: as §1
(§2) The assay was performed similar to example 61. However, test compounds were added at various concentrations, such as from 0.001 to about 0.1 µM, from 0.1 to about 10 µM, or from 1 to about 10 µM, as the need may be, in order to estimate the IC50 values. IC50 values were determined by plotting the percentage inhibitory activity for each concentration, fitting a curve using appropriate software and estimating the concentration at which 50% inhibition of growth would occur.

HCT-116 [8] = assay: IC50 determination by SRB assay (Example 62); type: cell-based; conditions: Homo sapiens, HCT-116; HCY-116
Procedure: as §1, §2

PC-3 [9] = assay: IC50 determination by SRB assay (Example 62); type: cell-based; conditions: Homo sapiens
Procedure: as §1, §2

A-549 [10] = assay: IC50 determination by SRB assay (Example 62); type: cell-based; conditions: Homo sapiens, A549
Procedure: as §1, §2

MCF7 [11] = assay: IC50 determination by SRB assay (Example 62); type: cell-based; conditions: Homo sapiens
Procedure: as §1, §2

SW-620 [12] = assay: IC50 determination by SRB assay (Example 62); type: cell-based; conditions: Homo sapiens
Procedure: as §1, §2

Row | SMILES | IC50 (A2780 [7]) | IC50 (HCT-116 [8]) | IC50 (PC-3 [9]) | IC50 (A-549 [10]) | IC50 (MCF7 [11]) | IC50 (SW-620 [12]) | inhibition at 1 µM (A2780 [1]) | inhibition at 1 µM (A-549 [2]) | inhibition at 1 µM (HCT-116 [3]) | inhibition at 1 µM (MCF7 [4]) | inhibition at 1 µM (PC-3 [5]) | inhibition at 1 µM (SW-620 [6])
1 | O=c1c(NCCCCCCOc2cccnc2)c(Nc2ccncc2)c1=O [SQ-16, 3-(Pyridin-4-ylamino)-4-[6-(pyridin-3-yloxy)-hexylamino]-cyclobut-3-ene-1,2-dione] | < 0.1 µM | < 0.5 µM | < 0.5 µM | – | – | – | > 80% | > 20% | > 80% | > 5% | > 20% | > 20%
2 | O=c1c(NCCCCCCOc2ccc(OCCN3CCOCC3)cc2)c(Nc2ccncc2)c1=O [SQ-23, 3-[6-(4-(2-Morpholin-4-yl-ethoxy)-phenoxy)-hexylamino]-4-(pyridin-4-yl-amino)-cyclobut-3-ene-1,2-dione] | < 0.02 µM | < 0.02 µM | < 0.02 µM | < 0.02 µM | < 0.5 µM | – | > 80% | > 50% | > 80% | – | > 50% | > 20%
3 | O=c1c(NCCCCCCSc2ccc(Cl)cc2)c(Nc2ccncc2)c1=O [SQ-27, 3-[6-(4-Chlorophenylsulfanyl)-hexylamino]-4-(pyridin-4-yl-amino)-cyclobut-3-ene-1,2-dione] | – | < 0.1 µM | – | < 2 µM | – | < 0.5 µM | > 80% | > 50% | > 80% | > 20% | > 50% | > 20%
4 | O=c1c(NCCCCCCOc2ccc(OCCN3CCOCC3)cc2)c(Nc2cccnc2)c1=O [SQ-24, 3-[6-(4-(2-Morpholin-4-yl-ethoxy)-phenoxy)-hexylamino]-4-(pyridin-3-yl-amino)-cyclobut-3-ene-1,2-dione] | < 0.02 µM | < 0.02 µM | < 0.1 µM | < 0.1 µM | – | < 2 µM | > 80% | > 50% | > 80% | > 20% | > 50% | > 20%
5 | O=c1c(NCCC2CCN(Cc3ccccc3)CC2)c(Nc2cccnc2)c1=O [SQ-37, 3-[2-(1-Benzylpiperidin-4-yl)ethylamino]-4-(pyridin-3-yl-amino)-cyclobut-3-ene-1,2-dione] | < 2 µM | < 2 µM | < 10 µM | – | – | – | – | – | – | – | – | –
6 | O=c1c(NCCc2ccc(Oc3ccc(Cl)cc3)cc2)c(Nc2cccnc2)c1=O [SQ-6, 3-{2-[4-(4-Chlorophenoxy)-phenyl]-ethylamino}-4-(pyridin-3-yl-amino)-cyclobut-3-ene-1,2-dione] | < 0.02 µM | < 0.1 µM | < 0.5 µM | – | – | – | – | – | – | – | – | –

Second part, led by results:

Row | IC50 (A2780 [7]) | IC50 (HCT-116 [8]) | IC50 (PC-3 [9]) | IC50 (A-549 [10]) | IC50 (MCF7 [11]) | IC50 (SW-620 [12]) | SMILES | inhibition at 1 µM (A2780 [1]) | inhibition at 1 µM (A-549 [2]) | inhibition at 1 µM (HCT-116 [3]) | inhibition at 1 µM (MCF7 [4]) | inhibition at 1 µM (PC-3 [5]) | inhibition at 1 µM (SW-620 [6])
7 | < 0.02 µM | < 0.02 µM | < 0.02 µM | – | – | – | O=c1c(NCCCCCCCc2ccccc2)c(Nc2ccncc2)c1=O [SQ-22, 3-(7-Phenylheptylamino)-4-(pyridin-4-yl-amino)-cyclobut-3-ene-1,2-dione] | > 80% | > 50% | > 80% | > 20% | > 50% | > 50%
8 | < 0.02 µM | < 0.02 µM | < 0.1 µM | – | – | – | O=c1c(NCCCCCCOc2ccc(CN3CCOCC3)cc2)c(Nc2cccnc2)c1=O [SQ-39, 3-(6-[4-(Morpholinomethyl)-phenoxy]-hexylamino)-4-(pyridin-3-yl-amino)-3-cyclobutene-1,2-dione] | > 80% | > 50% | > 80% | > 5% | > 20% | > 20%
9 | – | < 0.1 µM | – | < 0.5 µM | < 10 µM | < 0.5 µM | O=c1c(NCCCCCCOc2ccccc2)c(Nc2cccnc2)c1=O [SQ-3] | > 80% | > 50% | > 80% | > 5% | > 50% | > 50%
10 | < 10 µM | < 10 µM | > 10 µM | – | – | – | O=c1c(NCc2cccc(COc3ccc(Cl)cc3)c2)c(Nc2cccnc2)c1=O [SQ-35, 3-[3-(4-Chlorophenoxymethyl)-benzylamino]-4-(pyridin-3-yl-amino)-cyclobut-3-ene-1,2-dione] | – | – | – | – | – | –
11 | – | < 0.1 µM | – | < 0.5 µM | < 10 µM | < 2 µM | Cc1ccc(OCCCCCCNc2c(Nc3cccnc3)c(=O)c2=O)cc1 [SQ-4] | > 80% | > 50% | > 80% | – | > 50% | > 50%
12 | < 0.02 µM | < 0.02 µM | – | < 2 µM | < 10 µM | – | O=c1c(NCCCCCCOc2ccccc2)c(Nc2ccncc2)c1=O [SQ-12, 3-(6-Phenoxyhexylamino)-4-(pyridin-4y1-amino)-3-cyclobutene-1,2-dione] | > 80% | > 50% | > 80% | > 20% | > 50% | > 20%
